Measured values from patent US20040063780A1, “Pharmaceutical preparations for treatment of type II diabetes and methods for treatment of type II diabetes” (CHUGAI SEIYAKU KABUSHIKI KAISHA, priority 2002, published 2004).
Values joined by “and” are separate entries in the source; they are usually repeats but may differ in a detail not shown here. Equal entries are not always repeated.

Experiments:
db/db mice = experiment: Oral glucose tolerance test in db/db mice (blood glucose and blood lactic acid levels); assay type: in vivo, mice (C57BLKS/J-m+/+Lepr<db>(db/db)); details: subcutaneous, 30 min before oral glucose 3 g/kg, AUC up to 2 hours
From the text: In a glucose tolerance test with oral administration to db/db mice, approximately 50% suppression of blood glucose level in the db/db mice produces a level increase similar to that of healthy mice, and therefore a blood glucose reduction rate of at least 40%, and especially at least 50%, is preferred.
Measurement of blood glucose reduction rate in db/db mice by a glucose tolerance test with oral administration may be carried out by a publicly known method, but the following method is preferred. Specifically, 11- to 17-week-old female mice (C57BLKS/J-m+/+Lepr(db/db) ) are starved for 18-24 hours. A group of five or six mice is used for the test. Blood is sampled from the tail for measurement of the blood glucose levels before treatment as a control. After sampling, the biguanide derivative is dissolved in phosphate-buffered saline to a suitable concentration and subcutaneously administered at a dose of 5 ml/kg. As a control there are prepared mice administered only the solvent. Glucose is then administered orally at a dose of 3 g/6 ml/kg at 30 minutes after administration of the compound or solvent as an oral glucose tolerance test. Blood is sampled from the tail for measurement of the blood glucose levels 30 minutes, 1 hour and 2 hours after glucose administration. The blood glucose levels are measured using a New Blood Sugar Test (Roche Diagnostics) or a Glucose CII-Test Wako (Wako Pure Chemical Industries, Ltd.).
(§1) The blood glucose reduction rate is calculated according to the following formula.
Blood glucose reduction rate (%)=[(AUC for blood glucose increase level of solvent-administered group—AUC for blood glucose increase level of compound-administered group)/AUC for blood glucose increase level of solvent-administered group]×100
The AUC for blood glucose increase level represents the area of the increase portion in a graph of the blood glucose level changes after glucose administration plotted with respect to time, up to 2 hours after glucose administration, with the glucose level prior to glucose administration as the baseline. Specifically, the AUC for the blood glucose increase level may be calculated by the following formula, where A=blood glucose level before glucose administration, B=blood glucose level 30 minutes after glucose administration, C=blood glucose level 1 hour after glucose administration, D=blood glucose level 2 hours after glucose administration.
AUC for blood glucose increase level=0.5×((A+B)/2-A)+0.5×((B+C)/2-A)+1×((C+D)/2-A)
Measurement of blood glucose reduction rate and blood lactic acid levels by the aforementioned oral glucose tolerance test may be carried out by a publicly known method, and the measurement of the former may be carried out by the method described above, while the following method is preferred for measurement of the latter. Specifically, 11- to 17-week-old female mice (C57BLKS/J-m+/+Lepr(db/db)) are starved for 18-24 hours. A group of five or six mice is used for the test. Blood is sampled from the tail for measurement of the blood lactic acid levels before treatment as a control. After sampling, the biguanide derivative is dissolved in phosphate-buffered saline to a suitable concentration and subcutaneously administered at a dose of 5 ml/kg. As a control there are prepared mice administered only the solvent. Glucose is then administered orally at a dose of 3 g/6 ml/kg at 30 minutes after administration of the compound or solvent as an oral glucose tolerance test. Blood is sampled from the tail for measurement of the blood lactic acid levels 30 minutes, 1 hour and 2 hours after glucose administration. The blood lactic acid levels are measured using an “Asuka Sigma” (Sigma Diagnostics)
The blood lactic acid level increase rate is calculated according to the following formula. […]

KKAy mice = experiment: Hypoglycemic test by oral administration using KKAy mice; assay type: in vivo, mice (KKAy/Ta); details: AUC for blood glucose up to 6 hours after administration
From the text: The strength of the insulin sensitivity-enhancing effect may be evaluated based on the degree of blood glucose reduction rate with administration of the drug agent to KKAy mice. […] In hypoglycemic tests by oral administration using KKAy mice, approximately 45% suppression of blood glucose level in KKAy mice produces a level similar to healthy mice, and therefore a blood glucose reduction rate of 40-50% is preferred.
Measurement of blood glucose reduction rate in KKAy mice by a hypoglycemic test with oral administration may be carried out by a publicly known method, but the following method is preferred.
Specifically, a group of six 11-week-old male mice (KKAy/Ta) is used for the test. Blood is sampled from the tail for measurement of the blood glucose levels before treatment as a control. After sampling, the biguanide derivative is dissolved in a 0.5% CMC-Na (sodium carboxymethyl cellulose) solution to a suitable concentration and orally administered at a dose of 10 mL/kg. As a control there are prepared mice administered only the solvent. Blood is sampled from the tail to measure the blood glucose levels 1, 2, 4 and 6 hours after administration of the drug. The blood glucose levels are measured using a Glucose CII-Test Wako (Wako Pure Chemical Industries, Ltd.).
as §1
Blood glucose reduction rate (%)=[(AUC for blood glucose of control group—AUC for blood glucose of compound-administered group)/AUC for blood glucose of control group]×100
The AUC for blood glucose represents the area in a graph of the blood glucose level changes after administration of the drug plotted with respect to time, up to 6 hours after administration with a glucose level of 0 as the baseline. Specifically, the AUC for the blood glucose level may be calculated by the following formula, where A=blood glucose level before drug administration, B=blood glucose level 1 hour after drug administration, C=blood glucose level 2 hours after drug administration, D=blood glucose level 4 hours after drug administration, E=blood glucose level 6 hours after drug administration.
AUC for blood glucose level=1×((A+B)/2)+1×((B+C)/2)+2×((C+D)/2)+2×((D+E)/2)
A group of six 11-week-old male mice (KKAy/Ta) was used for the test. Blood was sampled from the tail for measurement of the blood glucose levels before treatment as a control. After sampling, furfuryl biguanide was dissolved in a 0.5% CMC-Na (sodium carboxymethyl cellulose) solution to a suitable concentration and orally administered at 10 mL/kg with the dosages shown in Table 1 (Examples 1-5). For comparison, metformin was also orally administered to mice in the doses shown in Table 1 (Comparative Examples 1-5). As a control there were prepared mice which had been orally administered the solvent alone. Blood was sampled from the tail to measure the blood glucose levels 1, 2, 4 and 6 hours after administration of the drug, and the blood glucose reduction rates were calculated by the formula given above. The blood glucose levels were measured using a Glucose CIT-Test Wako (Wako Pure Chemical Industries, Ltd.).

[1] = Mus musculus, sc, 2 h, 75 mg/kg, read-out: Blood glucose reduction rate (%)
[2] = Mus musculus, sc, 2 h, read-out: Blood glucose reduction rate (%)
[3] = Mus musculus, sc, 2 h, 200 mg/kg, read-out: Blood glucose reduction rate (%)

**Q.** Which inhibition in vivo at 25 mg/kg (db/db mice; Mus musculus, sc, 2 h, 25 mg/kg, read-out: Blood glucose reduction rate (%)) does the source give for Cc1ccc(CNC(=N)NC(=N)N)o1 [1-(5-methylfurfuryl) biguanide] here?
**A.** Its inhibition in vivo at 25 mg/kg is 24.7%.

**Q.** What about the inhibition in vivo at 50 mg/kg (db/db mice; Mus musculus, sc, 2 h, 50 mg/kg, read-out: Blood glucose reduction rate (%)) of the same compound?
**A.** The inhibition in vivo at 50 mg/kg was 46.1%.

**Q.** And the inhibition in vivo at 75 mg/kg (db/db mice; [1])?
**A.** The inhibition in vivo at 75 mg/kg was 54.7%.

**Q.** What about the inhibition in vivo at 100 mg/kg (db/db mice; [2]) of the same compound?
**A.** Its inhibition in vivo at 100 mg/kg is 86.6%.

**Q.** What about the “Blood lactic acid level increase rate (%)” value (db/db mice; 25 mg/kg) of the same compound?
**A.** Its value is 3.9%.

**Q.** What about the “Blood lactic acid level increase rate (%)” value (db/db mice; 50 mg/kg) of the same compound?
**A.** Its value is 1.3%.

**Q.** What about the “Blood lactic acid level increase rate (%)” value (db/db mice; 75 mg/kg) of the same compound?
**A.** Its value is 14.7%.

**Q.** How did the inhibition in vivo at 150 mg/kg (db/db mice; [2]) turn out when CSCc1ccoc1CNC(=N)NC(=N)N [1-[(3-Methylthiomethylfuran-2-yl)methyl] Biguanide] was run?
**A.** The inhibition in vivo at 150 mg/kg was 47.3%.

**Q.** How did the inhibition in vivo at 75 mg/kg (db/db mice; [1]) turn out when Cc1cc(CNC(=N)NC(=N)N)oc1C [1-[(4,5-Dimethylfuran-2-yl)methyl] Biguanide] was run?
**A.** The inhibition in vivo at 75 mg/kg was 52%.

**Q.** For CSc1coc(CNC(=N)NC(=N)N)c1 [1-[(4-Methylthiofuran-2-yl)methyl] Biguanide], which inhibition in vivo at 75 mg/kg (db/db mice; [1]) is on record?
**A.** Its inhibition in vivo at 75 mg/kg is 44.1%.

**Q.** And the inhibition in vivo at 100 mg/kg (db/db mice; [2])?
**A.** The inhibition in vivo at 100 mg/kg was 47.5%.

**Q.** What about the inhibition in vivo at 150 mg/kg (db/db mice; [2]) of the same compound?
**A.** The inhibition in vivo at 150 mg/kg was 58.1%.

**Q.** And the inhibition in vivo at 200 mg/kg (db/db mice; [3])?
**A.** The inhibition in vivo at 200 mg/kg was 73.9%.

**Q.** CSCc1ccc(CNC(=N)NC(=N)N)o1 [1-[(5-Methylthiomethylfuran-2-yl)methyll] Biguanide] was tested. Which inhibition in vivo at 75 mg/kg (db/db mice; [1]) did it give?
**A.** Its inhibition in vivo at 75 mg/kg is 46%.

**Q.** Which inhibition in vivo at 75 mg/kg (db/db mice; [1]) does the source give for CCc1ccc(CNC(=N)NC(=N)N)o1 [1-[(5-ethylfuran-2-yl)methyl] biguanide, 1-[(5-Ethylfuran-2-yl)methyl] Biguanide] here?
**A.** Its inhibition in vivo at 75 mg/kg is 71.3%.

**Q.** How did the inhibition in vivo at 75 mg/kg (db/db mice; [1]) turn out when CC(C)(C)c1ccc(CNC(=N)NC(=N)N)o1 [1-[(5-tert-butylfuran-2-yl)methyl] Biguanide] was run?
**A.** The inhibition in vivo at 75 mg/kg was 62.1%.

**Q.** N=C(N)NC(=N)NCc1ccco1 [Furfuryl biguanide, Furfuryl Biguanide] was tested. Which “Blood glucose reduction rate (%)” value (KKAy mice; 25.0 mg/kg) did it give?
**A.** Its value is 8.7%.

**Q.** What about the “Blood glucose reduction rate (%)” value (KKAy mice; 50.0 mg/kg) of the same compound?
**A.** Its value is 15.2%.

**Q.** What about the “Blood glucose reduction rate (%)” value (KKAy mice; 100.0 mg/kg) of the same compound?
**A.** Its value is 29.4%.

**Q.** And the “Blood glucose reduction rate (%)” value (KKAy mice; 200.0 mg/kg)?
**A.** Its value is 43.9%.

**Q.** And the “Blood glucose reduction rate (%)” value (KKAy mice; 300.0 mg/kg)?
**A.** The value was 48.0%.

**Q.** And the inhibition in vivo at 20 mg/kg (db/db mice; Mus musculus, sc, 2 h, 20.0 mg/kg, read-out: Blood glucose reduction rate (%))?
**A.** Its inhibition in vivo at 20 mg/kg is 46.9%.

**Q.** And the inhibition in vivo at 40 mg/kg (db/db mice; Mus musculus, sc, 2 h, 40.0 mg/kg, read-out: Blood glucose reduction rate (%))?
**A.** The inhibition in vivo at 40 mg/kg was 52.3%.

**Q.** And the inhibition in vivo at 75 mg/kg (db/db mice; [1])?
**A.** The inhibition in vivo at 75 mg/kg was 60.6%.

**Q.** And the inhibition in vivo at 80 mg/kg (db/db mice; Mus musculus, sc, 2 h, 80.0 mg/kg, read-out: Blood glucose reduction rate (%))?
**A.** Its inhibition in vivo at 80 mg/kg is 68.7%.

**Q.** What about the “Blood lactic acid level increase rate (%)” value (db/db mice; 20.0 mg/kg) of the same compound?
**A.** The value was 7.0%.

**Q.** What about the “Blood lactic acid level increase rate (%)” value (db/db mice; 40.0 mg/kg) of the same compound?
**A.** The value was 16.7%.

**Q.** What about the “Blood lactic acid level increase rate (%)” value (db/db mice; 75 mg/kg) of the same compound?
**A.** The value was 22.0%.

**Q.** And the “Blood lactic acid level increase rate (%)” value (db/db mice; 80.0 mg/kg)?
**A.** The value was 11.2%.

**Q.** For CN(C)C(=N)N=C(N)N [Metformin, reference compound], which “Blood glucose reduction rate (%)” value (KKAy mice; 150.0 mg/kg) is on record?
**A.** Its value is 11.6%.

**Q.** What about the “Blood glucose reduction rate (%)” value (KKAy mice; 300.0 mg/kg) of the same compound?
**A.** The value was 6.4%.

**Q.** What about the “Blood glucose reduction rate (%)” value (KKAy mice; 600.0 mg/kg) of the same compound?
**A.** The value was 21.8%.

**Q.** And the “Blood glucose reduction rate (%)” value (KKAy mice; 900.0 mg/kg)?
**A.** Its value is 32.7%.

**Q.** What about the “Blood glucose reduction rate (%)” value (KKAy mice; 1350.0 mg/kg) of the same compound?
**A.** Its value is 46.4%.

**Q.** What about the inhibition in vivo at 100 mg/kg (db/db mice; [2]) of the same compound?
**A.** The inhibition in vivo at 100 mg/kg was 19.4%.

**Q.** What about the inhibition in vivo at 200 mg/kg (db/db mice; [3]) of the same compound?
**A.** Its inhibition in vivo at 200 mg/kg is 37.5%.

**Q.** What about the “Blood lactic acid level increase rate (%)” value (db/db mice; 200 mg/kg, 200 mg/kg) of the same compound?
**A.** Its value is 36.8% and 42.7%.

**Q.** And the “Blood lactic acid level increase rate (%)” value (db/db mice; 300 mg/kg, 300 mg/kg)?
**A.** The value was 133.7% and 155.9% and 138.9% and 145.9%.
